Test results: PubChem BioAssay (NCI)
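In this assay, cells in 96-well plates receive the compound at five concentrations for 48 hours. Endpoints are linearly interpolated between the surrounding concentrations. The concentration for full growth arrest is given as TGI.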

Assays:
Assay in all cases: NCI tumour cell line growth inhibition, 48 h
EKVX NSCLC = tested on: EKVX NSCLC
OVCAR-5 ovarian = tested on: OVCAR-5 ovarian
RXF-631 renal = tested on: RXF-631 renal
OVCAR-8 ovarian = tested on: OVCAR-8 ovarian
CCRF-CEM leukemia = tested on: CCRF-CEM leukemia
HOP-92 NSCLC = tested on: HOP-92 NSCLC
RPMI-8226 leukemia = tested on: RPMI-8226 leukemia
LOX IMVI melanoma = tested on: LOX IMVI melanoma
SNB-78 CNS = tested on: SNB-78 CNS
KM12 colon = tested on: KM12 colon
A549 NSCLC = tested on: A549 NSCLC
RXF 393 renal = tested on: RXF 393 renal
UACC-257 melanoma = tested on: UACC-257 melanoma
KM20L2 colon = tested on: KM20L2 colon
M14 melanoma = tested on: M14 melanoma
SNB-75 CNS = tested on: SNB-75 CNS
SF-295 CNS = tested on: SF-295 CNS
DMS 114 small cell lung = tested on: DMS 114 small cell lung
SW-620 colon = tested on: SW-620 colon
SK-OV-3 ovarian = tested on: SK-OV-3 ovarian
HCT-116 colon = tested on: HCT-116 colon
UACC-62 melanoma = tested on: UACC-62 melanoma
SK-MEL-2 melanoma = tested on: SK-MEL-2 melanoma
HCT-15 colon = tested on: HCT-15 colon
K-562 leukemia = tested on: K-562 leukemia
HOP-62 NSCLC = tested on: HOP-62 NSCLC
786-0 renal = tested on: 786-0 renal
MALME-3M melanoma = tested on: MALME-3M melanoma
DMS 273 small cell lung = tested on: DMS 273 small cell lung
DLD-1 colon = tested on: DLD-1 colon
SN12C renal = tested on: SN12C renal
HL-60(TB) leukemia = tested on: HL-60(TB) leukemia
U251 CNS = tested on: U251 CNS
CAKI-1 renal = tested on: CAKI-1 renal
SF-268 CNS = tested on: SF-268 CNS
M19-MEL melanoma = tested on: M19-MEL melanoma
LXFL 529 NSCLC = tested on: LXFL 529 NSCLC
SF-539 CNS = tested on: SF-539 CNS
SK-MEL-5 melanoma = tested on: SK-MEL-5 melanoma
SNB-19 CNS = tested on: SNB-19 CNS
NCI-H460 lung = tested on: NCI-H460 lung
MOLT-4 leukemia = tested on: MOLT-4 leukemia
COLO 205 colon = tested on: COLO 205 colon
ACHN renal = tested on: ACHN renal
XF 498 CNS = tested on: XF 498 CNS
OVCAR-4 ovarian = tested on: OVCAR-4 ovarian
IGROV1 ovarian = tested on: IGROV1 ovarian
OVCAR-3 ovarian = tested on: OVCAR-3 ovarian
HCC-2998 colon = tested on: HCC-2998 colon
HT29 colon = tested on: HT29 colon
UO-31 renal = tested on: UO-31 renal
NCI-H23 lung = tested on: NCI-H23 lung
TK-10 renal = tested on: TK-10 renal
SR leukemia = tested on: SR leukemia
SK-MEL-28 melanoma = tested on: SK-MEL-28 melanoma
NCI-H226 lung = tested on: NCI-H226 lung
A498 renal = tested on: A498 renal
HOP-18 NSCLC = tested on: HOP-18 NSCLC

COC(=O)/C=C1\CCC(C)O1 (stereo unspecified)
TGI (EKVX NSCLC): > 100 µM
TGI (OVCAR-5 ovarian): > 100 µM
TGI (RXF-631 renal): > 100 µM
TGI (OVCAR-8 ovarian): > 100 µM
TGI (CCRF-CEM leukemia): > 100 µM
TGI (HOP-92 NSCLC): > 100 µM
TGI (RPMI-8226 leukemia): > 100 µM
TGI (LOX IMVI melanoma): > 100 µM
TGI (SNB-78 CNS): > 100 µM
TGI (KM12 colon): > 100 µM
TGI (A549 NSCLC): > 100 µM
TGI (RXF 393 renal): > 100 µM
TGI (UACC-257 melanoma): > 100 µM
TGI (KM20L2 colon): > 100 µM
TGI (M14 melanoma): > 100 µM
TGI (SNB-75 CNS): 94 µM
TGI (SF-295 CNS): > 100 µM
TGI (DMS 114 small cell lung): > 100 µM
TGI (SW-620 colon): > 100 µM
TGI (SK-OV-3 ovarian): > 100 µM
TGI (HCT-116 colon): > 100 µM
TGI (UACC-62 melanoma): > 100 µM
TGI (SK-MEL-2 melanoma): > 100 µM
TGI (HCT-15 colon): > 100 µM
TGI (K-562 leukemia): > 100 µM
TGI (HOP-62 NSCLC): > 100 µM
TGI (786-0 renal): > 100 µM
TGI (MALME-3M melanoma): > 100 µM
TGI (DMS 273 small cell lung): > 100 µM
TGI (DLD-1 colon): > 100 µM
TGI (SN12C renal): > 100 µM
TGI (HL-60(TB) leukemia): > 100 µM
TGI (U251 CNS): > 100 µM
TGI (CAKI-1 renal): > 100 µM
TGI (SF-268 CNS): > 100 µM
TGI (M19-MEL melanoma): > 100 µM
TGI (LXFL 529 NSCLC): > 100 µM
TGI (SF-539 CNS): > 100 µM
TGI (SK-MEL-5 melanoma): > 100 µM
TGI (SNB-19 CNS): > 100 µM
TGI (NCI-H460 lung): > 100 µM
TGI (MOLT-4 leukemia): > 100 µM
TGI (COLO 205 colon): > 100 µM
TGI (ACHN renal): > 100 µM
TGI (XF 498 CNS): > 100 µM
TGI (OVCAR-4 ovarian): > 100 µM
TGI (IGROV1 ovarian): > 100 µM
TGI (OVCAR-3 ovarian): > 100 µM
TGI (HCC-2998 colon): > 100 µM
TGI (HT29 colon): > 100 µM
TGI (UO-31 renal): > 100 µM
TGI (NCI-H23 lung): > 100 µM
TGI (TK-10 renal): > 100 µM

COc1cc2c(OC)cc1CSCc1sc(C)c(c1Br)CSC2
TGI (EKVX NSCLC): > 100 µM
TGI (OVCAR-5 ovarian): > 100 µM
TGI (RXF-631 renal): > 100 µM
TGI (OVCAR-8 ovarian): > 100 µM
TGI (CCRF-CEM leukemia): > 100 µM
TGI (HOP-92 NSCLC): > 100 µM
TGI (RPMI-8226 leukemia): > 100 µM
TGI (LOX IMVI melanoma): > 100 µM
TGI (SNB-78 CNS): > 100 µM
TGI (KM12 colon): > 100 µM
TGI (A549 NSCLC): > 100 µM
TGI (RXF 393 renal): > 100 µM
TGI (UACC-257 melanoma): > 100 µM
TGI (KM20L2 colon): > 100 µM
TGI (SR leukemia): > 100 µM
TGI (SK-MEL-28 melanoma): > 100 µM
TGI (M14 melanoma): > 100 µM
TGI (SNB-75 CNS): > 100 µM
TGI (SF-295 CNS): > 100 µM
TGI (DMS 114 small cell lung): > 100 µM
TGI (SW-620 colon): > 100 µM
TGI (SK-OV-3 ovarian): > 100 µM
TGI (HCT-116 colon): > 100 µM
TGI (UACC-62 melanoma): > 100 µM
TGI (SK-MEL-2 melanoma): > 100 µM
TGI (HCT-15 colon): > 100 µM
TGI (K-562 leukemia): > 100 µM
TGI (HOP-62 NSCLC): > 100 µM
TGI (786-0 renal): > 100 µM
TGI (MALME-3M melanoma): > 100 µM
TGI (DMS 273 small cell lung): > 100 µM
TGI (DLD-1 colon): > 100 µM
TGI (SN12C renal): > 100 µM
TGI (HL-60(TB) leukemia): > 100 µM
TGI (NCI-H226 lung): > 100 µM
TGI (U251 CNS): > 100 µM
TGI (CAKI-1 renal): > 100 µM
TGI (SF-268 CNS): > 100 µM
TGI (A498 renal): > 100 µM
TGI (HOP-18 NSCLC): > 100 µM
TGI (M19-MEL melanoma): > 100 µM
TGI (LXFL 529 NSCLC): > 100 µM
TGI (SF-539 CNS): > 100 µM
TGI (SK-MEL-5 melanoma): > 100 µM
TGI (SNB-19 CNS): > 100 µM
TGI (NCI-H460 lung): > 100 µM
TGI (MOLT-4 leukemia): > 100 µM
TGI (COLO 205 colon): > 100 µM
TGI (ACHN renal): > 100 µM
TGI (XF 498 CNS): > 100 µM
TGI (OVCAR-4 ovarian): > 100 µM
TGI (IGROV1 ovarian): > 100 µM
TGI (OVCAR-3 ovarian): > 100 µM
TGI (HCC-2998 colon): > 100 µM
TGI (HT29 colon): > 100 µM
TGI (UO-31 renal): > 100 µM
TGI (NCI-H23 lung): > 100 µM
TGI (TK-10 renal): > 100 µM
